Data: patent US12275694B2, “Pharmaceutically acceptable salts of [2-(3-fluoro-5-methane-sulfonylphenoxy)ethyl](propyl)amine and uses thereof” (INTEGRATIVE RESEARCH LABORATORIES SWEDEN AB, priority 2019, dated 2025)
Read-outs that look alike come from different tables or passages of the source.

Assays:
[1] = tested on: Parkinson's patients with L-dopa induced dyskinesia (LIDs); experiment: Human clinical study, 24-hour patient home diaries, good ON time; format: in vivo; conditions: 2.0 mg up to 10 mg such as 2.5, 5.0 or 7.5 mg, compared with an amount equal to or above 10 mg
Text: Home diaries have gained wide acceptance as endpoints for clinical development of therapeutics aiming to reduce treatment-related motor complications. Motor fluctuations are associated with compromise in activities of daily living and health-related quality of life. In clinical trials performed by Integrative Research Laboratories Sweden AB patients record their 24-hours motor function in 30-minute intervals, beginning at midnight. For each 30-minute interval the patient rates the state he or she has been in for the past 30 minutes; OFF, ON without troublesome dyskinesia or ON with troublesome dyskinesia. The patient also denoted the time when he or she has been asleep.
In general, an “OFF” time reduction or “good ON-time” increase of 1 hour may be considered clinically significant and has been used as an assumption in power calculations in clinical trials. […]
A valid diary is defined as not having more than 2 hours of invalid data entries (4 invalid entries) over a given 24-hour period. An invalid diary entry is defined as more than one entry recorded in each half-hour interval, an unreadable entry, or the absence of an entry in each half-hour interval. […]

[2] = Hygroscopicity test, weighed samples kept at varied humidity at 30° C. for one week; format: physicochemical; conditions: for Hygroscopicity (in words): any tested relative humidity
Method: After one week, the samples were weighed again and based on the original weight the percentage weight difference was calculated.

[3] = Plasma concentration of the drug in the human clinical study; format: in vivo; conditions: 2 hours after administration in the morning, 2.5 mg b.i.d.-10 mg b.i.d., patients
[4] = Method: The temperature was 25° C. using step intervals of 10% between 0% and 95% RH in two consecutive cycles.

With `CCCNCCOc1cc(F)cc(S(C)(=O)=O)c1` [Example 2, [2-(3-fluoro-5-methanesulfonylphenoxy)ethyl](propyl)amine] the “Good ON time (in words)” value [1] was “increased the good ON time to a larger extent”.

In the case of `CCCNCCOc1cc(F)cc(S(C)(=O)=O)c1` [Example 7, [2-(3-fluoro-5-methanesulfonylphenoxy)ethyl](propyl)amine hemi-L-tartrate], the “Hygroscopicity (in words)” value [2] is reported as “very low hygroscopicity”, the “Hygroscopicity (in words)” value ([2]; listed as L-tartaric acid salt) is reported as “not hygroscopic at any relative humidities” and the Weight change ([2]; even at very high relative humidity such as 73%, 75%, 83% or 97% for 7 days at 30° C.) is reported as ≤ 0.3%. The concentration at 2 h [3] was 50 to 200 nM.

For `CCCNCCOc1cc(F)cc(S(C)(=O)=O)c1` [Formula IV], the “Hygroscopicity (in words)” value [2] was “not being hygroscopic” and the Weight change ([2]; at any humidity such as any relative humidity) was ≤ 0.3 % by weight.

In the case of `CCCNCCOc1cc(F)cc(S(C)(=O)=O)c1.Cl` [hydrochloric acid salt, hydrochloric acid salt of [2-(3-fluoro-5-methanesulfonylphenoxy)-ethyl](propyl)amine], the Weight gain ([4]; 95% relative humidity and 25° C., DVS) is reported as “approximately 3%” and the “Hygroscopicity (in words)” value ([4]; high relative humidities) is reported as “hygroscopic at high relative humidities”.
